Entries after “also recorded” stand apart in the source; their conditions may differ.
Legend:
[1] = system: PFA-fixed PBMCs; experiment: Bulk un-fixing of PFA-fixed PBMCs, bulk RNA isolation and bulk RNA sequencing (Example 1); type: cell-based; settings: 4% PFA-fixed PBMCs, 50 mM un-fixing agent, 0.2% SDS, 10 mU/mL Proteinase K, 40° C. 2 h; for complexity of the transcriptomic library relative to no treatment of the fixed PBMCs (FIG. 8): estimated with Preseq
Protocol: Un-fixing agent solutions: the un-fixing agent of compounds (1), (4), (8), and (11) were each formulated in 30 mmol Tris buffer, pH 6.8 to a target concentration of 80 mM and the pH was adjusted to pH 6.5 using 2M NaOH. The final formulation was filtered through a 0.2 μm nylon syringe filter before addition into final composition of 50 mM of the un-fixing agent compound, 0.2% SDS, 10 mU/mL of Proteinase K and 0.2 U/mL RNAse inhibitor in 30 mM Tris, pH 6.8.
Bulk Un-fixing: PBMCs were fixed with 4% PFA for 24 h at 4° C. and quenched with 10% Fetal Bovine Serum (“FBS”) in PBS. The PFA-fixed PBMCs were treated with an un-fixing agent solution of compounds (1), (4), (8), or (11) formulated as described above at 40° C. for 2 h. Three different control samples also were prepared without un-fixing agent added: (1) fresh PBMCs (“Fresh Pellet” control); (2) PBMCs fixed with 4% PFA for 24 h then treated with 0.2% SDS, 10 mU/mL Proteinase K, and 0.2 U/mL RNAse inhibitor in 30 mM Tris, pH 6.8 at 40° C. for 2 h (“Fixed+PK, No UF agt.” control); and (3) PBMCs fixed with 4% PFA for 24 h (“fixed no un-fixing agent” control).
Bulk RNA isolation: After the bulk un-fixing treatment of the PFA-fixed PBMCs, the resulting treated (and control) samples were centrifuged at 450 g for 5 min and pellet as well as supernatant were collected. RNA isolation from collected pellets and supernatants was performed using RNeasy Plus Mini Kit (Qiagen, Cat #_74134) and RNeasy MinElute Cleanup Kit (Qiagen, Cat #74204), respectively. Isolated RNA was quantified using Qubit™ RNA HS Assay Kit (Invitrogen, Cat #Q32855) and Agilent RNA ScreenTape System (Agilent Technologies).
Bulk RNA sequencing: RNA could not be isolated from the “fixed no un-fixing agent” control sample. […] The “Fresh Pellet” control data was obtained by sequencing following bulk RNA isolation using the Qiagen kit without performing the 10× Genomics Single Cell 3′V3 protocol described below. For the four un-fixing agent treated samples and the remaining control samples described above, cDNA amplification was performed using an equivalent of 10 ng RNA. Post cDNA amplification, library prep was performed according to the 10× Genomics Single Cell 3′V3 protocol (10× Genomics, Pleasanton, CA, USA). A 3000-cell load of fresh PBMCs was used as a single cell reference (“Fresh SC3P”) and library prep was performed using Single Cell 3′V3 protocol (10× Genomics, Pleasanton, CA, USA). The final libraries were sequenced to between 25 and 100 million reads on a NovaSeq 6000 sequencer (Illumina Inc., San Diego, CA, USA). Bulk library complexity was estimated using the software package Preseq, as described by Daley and Smith (see e.g., Daley and Smith, “Predicting the molecular complexity of sequencing libraries,” Nature Methods 10:325-327, 2013). Library complexity as used here refers to the estimated number of unique RNA molecules aligned properly to the transcriptome (i.e., reads considered to be informative and used for gene expression counting) as a function of all sequenced reads. Gene expression counts were down-sampled across libraries to match the lowest sequencing depth and pairwise gene expression correlations were computed as the Pearson correlation (R^2) of gene expression counts between samples. When comparing gene expression data from control, unfixed PBMCs, gene expression counts were summed across cells to produce pseudo-bulk gene expression counts, as is customary in commercial gene expression analysis software (e.g., 10× Genomics, Pleasanton, CA, USA).

[2] = system: PFA-fixed Jurkats; experiment: Bulk un-fixing of PFA-fixed Jurkats with proline analog un-fixing agents and cold-active protease, RNA yield (Example 10); type: cell-based; settings: 4% PFA-fixed Jurkats; 100 mM un-fixing agent, 10 U/mL ArcticZymes Proteinase where present; 14-25° C. 90 min then 80° C. 15 min
Protocol: B. Un-fixing agent stock solutions: the proline analog un-fixing agents of compounds (12), (13), (14), and (15) were each formulated in 50 mmol Tris buffer, pH 8.3 to a target concentration of 300 mM and the pH was adjusted to pH 8.3 using 2M NaOH. The final formulation was filtered through a 0.2 μm nylon syringe filter before addition into final composition of 100 mM of the un-fixing agent compound, 10 U/mL ArcticZymes Proteinase and 0.2 U/mL RNAse inhibitor in 50 mM Tris, pH 8.3.
C. Protease stock solution: A stock solution of 10 U/mL of the cold-active protease, ArcticZymes Proteinase (ArcticZymes Technologies ASA, Tromso, Norway) was stored at −20° C.
D. Bulk un-fixing/protease treatment of fixed cells: Jurkats were fixed with 4% PFA for 24 h at 4° C. and quenched with 10% Fetal Bovine Serum (“FBS”) in PBS. RNAse inhibitor was added to the fixed cell solution together with 10 U/mL of the cold-active protease, ArcticZymes Proteinase, 1 mM of the protease inhibitor, and 100 mM of one of each of the tested un-fixing agents: compound (8), (12), (13), (14), or (15). […]
E. Bulk RNA isolation: After the bulk un-fixing treatment of the PFA-fixed Jurkats, the resulting samples were centrifuged 5 minutes at 500 g, 4° C., and the supernatant and pellet fractions were collected separately. […] Isolated RNA was quantified using Qubit™ RNA HS Assay Kit (Invitrogen, Cat #Q32855).

[3] = system: RNA treated with formaldehyde; settings: Karmakar et al., Nature Chemistry 7: 752-758 (2015); cited from earlier work

Compound	RNA recovery per read sequenced relative to fixed PBMCs treated only with proteinase K and SDS [1]	transcriptomic mapping relative to fixed PBMC samples not treated with an un-fixing agent (FIG. 7) [1]	complexity of the transcriptomic library relative to no treatment of the fixed PBMCs (FIG. 8) [1]	Pellet Avg. RNA yield [2]	Supernatant Avg. RNA yield [2]	recovery of RNA from the fixed biological sample [1]	breakdown of aminal and hemi-aminal adducts in RNA treated with formaldehyde [3]
Cc1ccc(N)c(S(=O)(=O)O)c1 [(4), 2-amino-5-methylbenzenesulfonic acid]	increased RNA recovery per read sequenced	increased the transcriptomic mapping	higher complexity of the transcriptomic library				
Nc1ccncc1P(=O)(O)O [Compound (8), (4-aminopyridin-3-yl)phosphonic acid]		decreased the transcriptomic mapping	higher complexity of the transcriptomic library; also recorded: highest library complexity	54 ng	200 ng		
Cc1ccc(N)c(C(=O)O)c1 [Compound (1), 2-amino-5-methylbenzoic acid]	increased RNA recovery per read sequenced	increased the transcriptomic mapping	higher complexity of the transcriptomic library			highest recovery of RNA	
(2-amino-5-{[2-(2-poly-ethoxy)ethyl]carbamoyl} phenyl)phosphonic acid [(11)]		decreased the transcriptomic mapping					
Cc1ccc(N)c(P(=O)(O)O)c1 [(3), (2-amino-5-methylphenyl)phosphonic acid]							catalytically break down the aminal and hemi-aminal adducts

Reference: patent publication US12241890B2, “Methods for generating barcoded nucleic acid molecules using fixed cells” (10X Genomics, Inc., priority 2019, dated 2025)
